Assay results taken from article PMC4253628, “Antiviral effects against EV71 of pimprinine and its derivatives isolated from Streptomyces sp” (Virology Journal, 2014).
Where two headings read alike, the source gives them in different places.

Experiments:
[1] = Cytotoxicity, MTT method, MDCK cells; type: cell-based, canine; conditions: dog, uninfected MDCK cells, host cells of H1N1: MDCK
Method: (§1) The 50% cell cytotoxic concentrations (CC50s) of compounds were calculated using SPSS software. SI were calculated from the ratio of CC50: EC50.

[2] = tested on: H1N1; assay: Inhibition of H1N1-induced CPE in MDCK cells; type: cell-based, influenza virus A/human/Hubei/86/2009 (H1N1); conditions: for EC50: Influenza A virus, read-out: EC50 H1N1
[3] = tested on: H1N1; assay: Virus yield reduction assay, H1N1; type: cell-based, influenza virus A/human/Hubei/86/2009 (H1N1); conditions: MDCK cells, — = less than 90% inhibition
Method: Virus yield reduction assays were also carried out to evaluate further the protective effects of the tested compounds.
The virus suspension, serially diluted 10-fold with DMEM containing 2% FBS, was inoculated to cells in a 96-well plate. After 1 h incubation at 37°C in 5% CO2, unbinding virus was washed out and DMEM maintenance medium supplemented with 2% FBS was added to the cells. After 2 days, the infected cells were monitored for cytopathic effects (CPEs). The virus titer was calculated by the Reed–Muench method.

[4] = Cytotoxicity, MTT method, Hep-2 cells; type: cell-based; conditions: human
Method: as §1

[5] = tested on: HSV-1; assay: Virus yield reduction assay, HSV-1; type: cell-based, herpes simplex virus 1; conditions: Hep-2 cells, — = less than 90% inhibition
[6] = tested on: HSV-1; assay: Plaque reduction assay, HSV-1 in Hep-2 cells; conditions: for SI HSV-1, ratio CC50/EC50 / inhibition of HSV-1-induced plaque formation: Hep-2 cells; for EC50: Human alphaherpesvirus 1, HEp-2, read-out: EC50 HSV-1; for inhibition of HSV-1-induced plaque formation: inhibition achievable
Method: Confluent monolayers of Hep-2 cells, seeded in a 24-well plate, were infected with HSV-1 at a density of 60–80 plaque-forming units (PFU) per well and treated with media (pre-warmed DMEM containing 2% FBS, 0.8% low-melting agarose) mixed with or without the serially diluted tested compounds for the periods indicated following different procedures. The cells were incubated at 37°C until plaques appeared, followed by fixing with 10% formaldehyde and staining with 0.5% crystal violet. The plaques were counted by visual examination. The ratio of the number of plaques in the treated group to that in the untreated control was calculated.
A plaque reduction assay was performed to measure the inhibitory effects of the test compounds against HSV-1 infection.

[7] = Cytotoxicity, MTT method, uninfected RD cells; type: cell-based; conditions: human; RD cells, MTT, 48 h; mean ± SD of three experiments; read-out: CC50, compound concentration required to reduce cell viability by 50%
Method: as §1

[8] = tested on: EV71; assay: Progeny virus yield reduction, EV71 in RD cells; type: cell-based, Enterovirus 71; conditions: for reduction in progeny virus titers relative to virus control: 80 μM, 100 TCID50 EV71, RD cells, 10 h; for EC90: Enterovirus A, EV71, RD cells, progeny viral yield, read-out: EC90, compound concentration required to achieve 90% virus yield reduction
[9] = Cytotoxicity, MTT method, HeLa cells; type: cell-based; conditions: human, uninfected HeLa cells; host cells of ADV-7: HeLa, MTT, 48 h; read-out: CC50 (ADV-7)
Method: as §1

[10] = tested on: CVB3; assay: Virus yield reduction assay, CVB3; type: cell-based, Coxsackievirus B3; conditions: Enterovirus B, CVB3; Hep-2 cells; — = less than 90% inhibition; read-out: EC90 CVB3, concentration required to inhibit 90% virus yield
[11] = tested on: ADV-7; assay: Virus yield reduction assay, ADV-7; type: cell-based, adenovirus 7; conditions: Human mastadenovirus B; HeLa cells; read-out: EC90 ADV-7, concentration required to inhibit 90% virus yield
[12] = Cytotoxicity, ATPLite luminescence-based assay, RD cells; type: cell-based; conditions: human
Description: (§2) The ATPLite assay may be more sensitive to cytotoxicity than the MTT method. For RD and Hep-2 cells, similar results were obtained, and for HeLa and MDCK cells, the values of CC50 from the ATPLite assay were smaller than those from MTT assays (Tables 1, 2 and 3).

[13] = tested on: EV71; assay: Dependence of anti-EV71 activity on virus inoculum (cell viability, MTT) in RD cells; type: cell-based, Enterovirus 71; conditions: virus concentration above 10^4 TCID50
[14] = tested on: EV71; assay: Virucidal activity against EV71; type: cell-based, Enterovirus 71; conditions: 80 μM pimprinethine, 40 μM WS-30581 A or 40 μM WS-30581 B; 24 h at 4°C; 10^3 TCID50
[15] = tested on: EV71; assay: Effective stage analysis, EV71 in RD cells; type: cell-based, Enterovirus 71; conditions: 48 h; for virus titer reduction vs untreated cells: 80 μM, added post infection, EV71 100 TCID50; for viability at 80 µM: Enterovirus A, RD, added post infection (therapeutic), EV71 100 TCID50, read-out: viability rates of the infected cells
[16] = tested on: EV71; assay: Adsorption analysis, EV71 on RD cells; type: cell-based, Enterovirus 71; conditions: 160 μM pimprinethine, 80 μM WS-30581 A, 80 μM WS-30581 B; EV71 10^4 TCID50; 2 h adsorption
[17] = tested on: EV71; assay: Release analysis, EV71 from RD cells; type: cell-based, Enterovirus 71; conditions: 80 μM pimprinethine, 40 μM WS-30581 A or B; 12 h p.i.
[18] = tested on: EV71; conditions: EV71, RD cells
Method: (§3) Cell viability was assessed by an MTT assay, which functions based on the reduction of a MTT into formazan dye by active mitochondria. The cells were treated with 100 μL of MTT (1 mg/mL, Sigma) and incubated at 37°C for 4 h. The reaction was blocked by DMSO and measured in a microplate reader (Bio-Tek Instruments) at 492 nm. The untreated control was arbitrarily set as 100%.
(§4) Confluent cell monolayers in 96-well dishes were infected with 100 TCID50 of corresponding virus dilution mixed with serial dilutions of tested compounds for 1 h at 37°C. Inocula were aspirated and the cells were then incubated with various concentrations of DMEM/tested compounds at 37°C, 5% CO2 for 48 h. CPE were observed microscopically and the viability of the cells was determined using MTT assays. […] The concentrations required for the tested compounds to achieve 50% protection of cells from virus-induced CPE were determined.

[19] = set-up: method as in PMID 6501088; conditions: ddY mice, intraperitoneal injection; cited from earlier work
[20] = tested on: EV71; assay: microbe, parasite or virus in culture; conditions: Enterovirus A, EV71, RD, 48 h, read-out: EC50, compound concentration required to achieve 50% protection from virus-induced cytopathogenicity
Method: as §3, §4

[21] = tested on: CVB3; assay: Inhibition of CVB3-induced CPE in Hep-2 cells; conditions: for EC50: Enterovirus B, CVB3, HEp-2, 48 h, read-out: EC50 CVB3; for SI CVB3, ratio CC50/EC50: Hep-2 cells
Method: as §3, §4

[22] = tested on: ADV-7; assay: Inhibition of ADV-7-induced CPE in HeLa cells; conditions: for SI ADV-7, ratio CC50/EC50: HeLa cells; for EC50: Human mastadenovirus B, HeLa, 48 h, read-out: EC50 ADV-7
Method: as §3, §4

[23] = Cytotoxicity, ATPLite luminescence-based assay, Hep-2 cells; type: cell-based; conditions: human
Description: as §2

[24] = Cytotoxicity, ATPLite luminescence-based assay, HeLa cells; type: cell-based; conditions: human
Description: as §2

[25] = Cytotoxicity, ATPLite luminescence-based assay, MDCK cells; type: cell-based, canine; conditions: dog
Description: as §2

[26] = uninfected Hep-2 cells, host cells of CVB3: Hep-2, MTT, 48 h, read-out: CC50 (CVB3)

Row | Compound | CC50 at 48 h [1] [µM] | SI H1N1, ratio CC50/EC50 ([2]; MDCK cells) | SI HSV-1, ratio CC50/EC50 [6] | EC50 [6] [µM] | CC50 at 48 h [7] [µM] | reduction in progeny virus titers relative to virus control [8] [log] | EC90 [8] [µM] | CC50 at 48 h [4, 26] [µM] | CC50 at 48 h [9] [µM] | inhibition of H1N1 infection ([2]; MDCK cells) | EC90 [10] [µM] | EC90 HSV-1, concentration required to inhibit 90% virus yield [5] | EC90 [11] [µM] | EC90 H1N1, concentration required to inhibit 90% virus yield [3] | CC50 [12] [µM] | anti-EV71 inhibition at excessive virus inoculum [13] | virus titers of EV71 mixture with vs without compound (virucidal activity) [14] | virus titer reduction vs untreated cells [15] | viability at 80 µM [15] [%] | virus titer during virus attachment (adsorption) [16] | further results
1 | NC12CC3CC(CC(C3)C1)C2 [Amantadine, reference compound] | > 2000 | >27 | – | – | – | – | – | – | – | – | – | – | – | – | – | – | – | – | – | – | EC50 ([2]; H1N1, MDCK cells, 100 TCID50, 48 h, CPE, — = less than 50% inhibition): 73 ± 8 µM; EC90 ([3]; Influenza A virus, H1N1, read-out: EC90 H1N1, concentration required to inhibit 90% virus yield): 90 ± 12 µM
2 | Nc1nc2c(ncn2COCCO)c(=O)[nH]1 [Acyclovir, reference compound] | – | – | >181 | 11 ± 1 | – | – | – | – | – | – | – | – | – | – | – | – | – | – | – | – | CC50 at 48 h [4]: > 2000 µM; EC90 ([5]; Human alphaherpesvirus 1, read-out: EC90 HSV-1, concentration required to inhibit 90% virus yield): 24 ± 5 µM
3 | CCCc1ncc(-c2c[nH]c3ccccc23)o1 [WS-30581 A] | 212 ± 18 | 6 | 4 | 18 ± 2 | 363 ± 13 | 3.0 | 26 ± 6 | 72 ± 8 | 217 ± 4 | less than 70% | 39 ± 4 | — (—, less than 50% or 90% inhibition) | 43 ± 3 | — (—, less than 50% or 90% inhibition) | 313 ± 49 | Inhibition was eliminated | No significant difference | approximately 5.0 log | ~100 | no significant decrease | EC50 ([2]; H1N1, MDCK, 48 h): 38 ± 7 µM; release of EV71 from RD cells [17]: unaffected; SI (selectivity index), ratio CC50/EC50 [18]: 23; acute toxicity [19]: above 250 mg/kg; EC50 [20]: 16 ± 1 µM; inhibition of HSV-1-induced plaque formation [6]: approximately 80%; EC50 [21]: 14 ± 4 µM; SI CVB3, ratio CC50/EC50 [21]: 5; SI ADV-7, ratio CC50/EC50 [22]: 13; EC50 [22]: 17 ± 18 µM
4 | CCc1ncc(-c2c[nH]c3ccccc23)o1 [Pimprinethine] | 577 ± 73 | – | 6 | 45 ± 3 | 835 ± 20 | 3.0 | 42 ± 3 | 256 ± 49 | 750 ± 30 | negligible measurable inhibition | 58 ± 9 | — (—, less than 50% or 90% inhibition) | 63 ± 5 | — (—, less than 50% or 90% inhibition) | 656 ± 82 | Inhibition was eliminated | No significant difference | approximately 5.0 log | ~100 | no significant decrease | EC50 H1N1 ([2]; MDCK cells, 100 TCID50, 48 h, CPE, — = less than 50% inhibition): — (—, less than 50% or 90% inhibition); CC50 [23]: 233 ± 36 µM; CC50 [24]: 550 ± 103 µM; CC50 [25]: 406 ± 48 µM; release of EV71 from RD cells [17]: unaffected; SI (selectivity index), ratio CC50/EC50 [18]: 24; EC50 [20]: 35 ± 4 µM; inhibition of HSV-1-induced plaque formation [6]: approximately 80%; EC50 [21]: 22 ± 4 µM; SI CVB3, ratio CC50/EC50 [21]: 12; SI ADV-7, ratio CC50/EC50 [22]: 23; EC50 [22]: 33 ± 6 µM
